According to US20150290193A1, “NOVEL APPROACHES FOR INDIVIDUALIZED THERAPY OF PANCREATIC DUCTAL ADENOCARCINOMA” (HI-STEM gGmbH, priority 2012, published 2015):

Tests used:
stable PDAC cell lines = experiment: Dose-escalation IC50 determination, cell viability by CellTiterBlue; format: cell-based, human; settings: 72 h; 3-fold serial dilutions in quadruplicates
Method: For calculation of the IC50, 3-fold serial dilutions of selected compounds were screened in quadruplicates, incubated for 72 h after which cell viability was assessed using CellTiterBlue as described. Raw data was normalized to positive and negative controls present on each individual plate IC50 values were calculated using GraphPad Prism (Graph Pad Software, La Jolla).
For calculation of the IC50 serial dilutions of selected compounds were screened in quadruplicates. In brief, 8,000 cells/well were seeded 24 h prior to addition of individual compounds in 96-well plates. After incubation for 72 h, cell viability was assessed using CellTiterBlue (Promega, Mannheim) as described. Raw data was normalized to positive and negative controls present on each individual plate. IC50 values were calculated using GraphPad Prism (Graph Pad Software, La Jolla).

[1] = test system: PACO tumors (transplanted human PDAC tumors); experiment: In vivo drug screen, subcutaneous PACO tumors in NSG mice, relative tumor volume; settings: tumors of all three subtypes; 125 mg/kg i.p. twice weekly
Method: Three groups of mice that each carried transplanted human tumors of one either the sensitive or the resistant subtypes were treated with Dasatinib, either alone or in combination with the chemotherapeutic agent Gemcitabine.
PACO tumors were established by injecting 5×10^5 cells subcutaneously into a cohort 20 NOD.Cg-Prkdcscid Il2rgtm1Wjl (NSG) mice. After the tumors reached a size of approx. 200 mm^3, mice were randomized into two groups of each 10 mice—Control, Gemcitabine, Dasatinib or combination of both. Gemcitabine was dissolved in 0.8% buffered saline and administered twice weekly at 125 mg/kg i.p. Dasatinib was prepared in citrate/citric acid buffer (pH 3) and administered daily via oral gavage at 25 mg/kg. Tumor volume was determined twice weekly via caliper measurements and calculated according the formula (length×height×width)×(π/6). Relative tumor growth was calculated for each individual tumor in relation to the volume calculated as of the start of the experiment.
Tumor size is expressed as relative volume normalized to the day of start of treatment.

Cc1nc(Nc2ncc(C(=O)Nc3c(C)cccc3Cl)s2)cc(N2CCN(CCO)CC2)n1 [Dasatinib] was tested, and the “fold lower IC50 value of the classical subtype versus exocrine-like and quasi-mesenchymal PDAC cells” value (stable PDAC cell lines) was > 10,000 fold.

For Nc1ccn([C@@H]2O[C@H](CO)[C@@H](O)C2(F)F)c(=O)n1 [Gemcitabine], the “tumor growth, Gemcitabine alone” value [1] was “growth-inhibitory effect on tumors of all three subtypes, however did not lead to a complete stop in tumor growth”.
